From US11786468B2, “Nanoparticles” (KING'S COLLEGE LONDON, priority 2015, dated 2023)
“And” between values parts separate entries of the source, which are not always exact repeats. Identical values can stand only once. Each block holds one compound with its values, some of them ahead of it.

Tests used:
[1] = 7T MRI T1/T2 assessment and relaxometry of liposome samples; format: physicochemical; parameters: r1: unit not given here; details: for T1 (s) 1 param / T1 (s) 3 param / T1 (s) Image J / T2 (s) 1 param / T2 (s) Image J / T2 (s) 3 param: 7T
Text: A series of MRI T1/T2 assessment studies have been carried out using a 7 T pre clinical MRI scanner, with the assistance of Dr Po-Wah So (James Black Centre, KCL). The focus here has been to derive reliable r1/r2 relaxivities per molar Gd(III) for liposome produced using the [Gd]DOTA.DSA, [Gd]DOTA.Ahx.DSA and [Gd]DOTA.Aoc.DSA. This is reliant on both accurate measurements of the T1/T2 effects and also the exact gadolinium concentration in the prepared liposome suspensions. The extrusion and gel filtration processes make this latter hard to estimate, so Inductively Coupled Plasma Mass Spectrometry (ICP-MS) quantification is being assessed. This is turn required testing of suitable acid digestion conditions since the lipid-chelates may not be analysed directly. For both MRI and ICP-MS, commercial Gadovist is being used a positive control contrast agent of known Gd content. Assessment of temperature, buffer salt and liposome size effects on T1/T2 are also underway.
FIGS. 22 and 23 show Example T1 and T2 brightness traces for controls and liposome samples.
MRI data (T1, T2 lower is brighter) is shown Table 1:
Comparison of liposomes containing different lipids as measured at 7T Magnet*.

[2] = Pharmacokinetics of topotecan in blood by HPLC; format: in vivo, Balb C Mice; details: i.v. tail vein, concentration matched
Procedure: Balb C Mice were injected with IgFUS-TNPs encapsulating topotecan (8 mg/kg per mouse body weight) and drug pharmacokinetics monitored by blood sample analyses. Blood samples (50-100 μL) were collected at time intervals (2 min-4 h) and transferred into pre-weighed plastic vials containing heparin (5 uL). Cold methanol (100 μL) was added to each and the mixed samples stored over dry ice or at −20° C. until required. After thawing, each vial was weighed again and the difference used to estimate then original sample volume. […] Batches of 5 samples were analysed three times using an Agilent 1100 HPLC equipped with a cooled sample chamber (8-12° C.), a guarded Thermo Hypersil 30×4.6 mm, 5 μm C18 column, a Diode Array Detector (UV/vis absorbance) and an Agilent 1260 Infinity fluorescence detector. […] Detection was by absorbance (210/254/280 nm for proteins and other biologicals; 380 nm for topotecan; all using a bandwidth of 8 nm c.p. reference at 700 nm) and fluorescence (Ex 400 nm; Em 545 nm; PMT-gain 18). Injections were 5-20 μL depending on the sample concentrations and quantifications were calculated from the fluorescence peak areas after calibration (the detector response was effectively linear over the sensitive range). Topotecan could be reliably identified even at extremely low concentrations (10-20 ng/mL) by its intrinsic fluorescence and retention time (3.33±0.03 min; N=45). […]

[3] = 19.6 °C, conc >0.3 mM, dil not given
[4] = 19.6 °C, dil 1 (liposomes 20 mg/mL; Gadovist 3.1 or 3 mM), Gadovist 3 mM
[5] = 19.6 °C, dil 1 (liposomes 20 mg/mL; Gadovist 3.1 or 3 mM), Gadovist 3.1 mM
[6] = 35.5 °C, conc >0.3 mM, dil not given

T1 (s) 1 param [1, 3]: 2.033 s
T1 (s) 3 param [1, 3]: 2.061 s
T1 (s) Image J [1, 3]: 2.061 s
T2 (s) 1 param [1, 3]: 0.206 s
T2 (s) Image J [1, 3]: 0.1 s
T1 (s) 1 param [1, 4]: 0.09174 s
T1 (s) 3 param [1, 4]: 0.07712 s
T1 (s) Image J [1, 4]: 0.092 s
T2 (s) 1 param [1, 4]: 0.04691 s
T2 (s) 3 param [1, 4]: 0.0488 s
T2 (s) Image J [1, 4]: 0.047 s
T1 (s) 1 param [1, 5]: 0.072 s
T1 (s) 3 param [1, 5]: 0.084 s
T1 (s) Image J [1, 5]: 0.084 s
T2 (s) 1 param [1, 5]: 0.0431 s and 0.0426 s
T2 (s) 3 param [1, 5]: 0.0422 s and 0.0419 s
T2 (s) Image J [1, 5]: 0.042 s
T1 (s) 1 param [1, 6]: 2.602 s
T1 (s) 3 param [1, 6]: 2.617 s
T1 (s) Image J [1, 6]: 2.606 s
T2 (s) 1 param [1, 6]: 0.153 s
T2 (s) Image J [1, 6]: 0.1 s
T1 (s) 1 param ([1]; 39.5 °C, dil 1 (Gadovist 3 mM)): 0.1297 s
T1 (s) 3 param ([1]; 39.5 °C, dil 1 (Gadovist 3 mM)): 0.1138 s
T1 (s) Image J ([1]; 39.5 °C, dil 1 (Gadovist 3 mM)): 0.13 s
T2 (s) 1 param ([1]; 39.5 °C, dil 1 (Gadovist 3 mM)): 0.05335 s
T2 (s) 3 param ([1]; 39.5 °C, dil 1 (Gadovist 3 mM)): 0.05578 s
T2 (s) Image J ([1]; 39.5 °C, dil 1 (Gadovist 3 mM)): 0.053 s
r1 ([1]; measured at 7T Magnet): 4.8
Structure (SMILES): O=C([O-])CN1CCN(CC(=O)[O-])CCN([C@H](CO)[C@H](O)CO)CCN(CC(=O)[O-])CC1.[Gd+3] (racemic) [Gadovist]

drug clearance from the blood pool [2]: cleared from the blood pool in mins
Structure (SMILES): CC[C@@]1(O)C(=O)OCc2c1cc1n(c2=O)Cc2cc3c(CN(C)C)c(O)ccc3nc2-1 [topotecan]
